Source: patent US7217532B2, “Methods for detecting DNA damage and screening for cancer therapeutics” (The Wistar Institute of Anatomy and Biology, priority 2000, dated 2007)

What follows are molecules tested on 53Bp1 foci in U2OS cells (assay: Effect of wortmannin or caffeine on ionizing radiation-induced 53Bp1 foci, by immunofluorescent microscopy). Details: 20 μM wortmannin, 1 Gy ionizing radiation, at 30 minutes.
Assay type: cell-based, human

Molecule | reduction of percentage of cells containing 53Bp1 ionizing radiation-induced foci [%]
COC[C@H]1OC(=O)c2coc3c2[C@@]1(C)C1=C(C3=O)[C@@H]2CCC(=O)[C@@]2(C)C[C@H]1OC(C)=O [wortmannin] | ~50

Each molecule was assayed on ionizing radiation-induced foci in U2OS cells (assay: Localization of HA-tagged 53Bp1 deletion mutants to ionizing radiation-induced foci in U2OS cells). Details: HA-tagged proteins expressed in U2OS cells, immunofluorescence after ionizing radiation.
Assay type: cell-based, human
From the text: Stably transfected U2OS cell lines were created by transfecting the plasmid pSV2 [Chehab, N. H. et al, 1999 Proc. Natl. Acad. Sci., USA, 96:13777–13782] containing various N-terminal hemaglutinin (HA) tagged versions of 53Bp1. HA53Bp1 is the full-length protein bearing the HA tag on its N terminus. HA53Bp1ΔBRCT is similar to HA53Bp1 with amino acids 1713 to 1973 (the BRCT domains) of SEQ ID NO: 2 deleted therefrom. HA53Bp1C312 contains only the C-terminal 312 amino acids of 53Bp1, which include the nuclear localization signal (i.e., amino acids 1662 to 1701 of SEQ ID NO: 2 and the BRCT domain (amino acids 1702–1973 of SEQ ID NO: 2). The U2OS cells on cover slips were transiently transfected with the selected plasmid using the calcium phosphate method. Positively transfected colonies were pooled after selecting with neomycin. Expression was allowed to occur for 30 hours and then cells were treated, fixed, stained, and visualized as described below.
The following experiments were performed to identify the minimal focus-targeting (FT) domain of the relatively large (1972 amino acids) 53Bp1 protein [SEQ ID NO: 2]. The FT domain is the portion of the protein sequence required for targeting to ionizing radiation-induced foci. The FT domain participates in the mechanism of 53Bp1 relocalization. In addition, fragments of 53Bp1 that retain the ability to form ionizing radiation-induced foci act as dominant negative mutants by competing with endogenous 53Bp1 for localization to the IR-induced 53Bp1-binding sites.
A series of 53Bp1 deletion mutants was generated and expressed as HA-tagged proteins in U2OS cells. These cells were examined by immuno-fluorescence for their intracellular localization in response to ionizing radiation, as described in Examples 1 and 2. Nuclear localization is considered to be a prerequisite for targeting of 53Bp1 to ionizing radiation-induced foci. Therefore, all the mutants were constructed so that they retained the NLS of 53Bp1.

Molecule | Ionizing Radiation-Induced Foci Localization
AA residues 1–1053 and 1220–1972: 53Bp1 deletion mutant, deletion of residues 1054–1219 of SEQ ID NO: 2, HA-tagged | Yes
AA residues 1–1053 and 1411–1972: 53Bp1 deletion mutant, deletion of residues 1054–1410 of SEQ ID NO: 2, HA-tagged | No
AA residues 1–1711: 53Bp1 deletion mutant, deletion of AA residues 1712–1972 of SEQ ID NO: 2, HA-tagged | Yes
full-length: full-length 53Bp1, AA residues 1–1972 of SEQ ID NO: 2, HA-tagged | Yes
AA residues 1661–1972: 53Bp1 deletion mutant, deletion of residues 1–1660 of SEQ ID NO: 2, HA-tagged (protein, HA tag; human 53Bp1) MGVLSGKRKLITSEEERSPAKRGRKSATVKPGAVGAGEFVSPCESGDNTGEPSALEEQRGPLPLNKTLFLGYAFLLTMATTSDKLASRSKLPDGPTGSSEEEEEFLEIPPFNKQYTESQLRAGAGYILEDFNEAQCNTAYQCLLIADQHCRTRKYFLCLASGIPCVSHVWVHDSCHANQLQNYRNYLLPAGYSLEEQRILDWQPRENPFQNLKVLLVSDQQQNFLELWSEILMTGGAASVKQHHSSAHNKDIALGVFDVVVTDPSCPASVLKCAEALQLPVVSQEWVIQCLIVGERIGFKQHPKYKHDYVSH | No
AA residues 1–34 and 1047–1711: 53Bp1 deletion mutant, deletion of residues 35–1046 and 1712–1972 of SEQ ID NO: 2, HA-tagged (protein, HA tag; human 53Bp1) MDPTGSQLDSDFSQQDTPCLIIEDSQPESQVLEDEARSEDPPTTPIRGNLLHFPSSQGEEEKEKLEGDHTIRQSQQPMKPISPVKDPVSPASQKMVIQGPSSPQGEAMVTDVLEDQKEGRSTNKENPSKALIERPSQNNIGIQTMECSLRVPETVSAATQTIKNVCEQGTSTVDQNFGKQDATVQTERGSGEKPVSAPGDDTESLHSQGEEEFDMPQPPHGHVLHRHMRTIREVRTLVTRVITDVYYVDGTEVERKVTEETEEPIVECQECETEVSPSQTGGSSGDLGDISSFSSKASSLHRTSSGTSLSAMHSSGSSGKGAGPLRGKTSGTEPADFALPSSRGGPGKLSPRKGVSQTGTPVCEEDGDAGLGIRQGGKAPVTPRGRGRRGRPPSRTTGTRETAVPGPLGIEDISPNLSPDDKSFSRVVPRVPDSTRRTDVGAGALRRSDSPEIPFQAAAGPSDGLDASSPGNSFVGLRVVAKWSSNGYFYSGKITRDVGAGKYKLLFDDGYECDVLGKDILLCDPIPLDTEVTALSEDEYFSAGVVKGHRKESGELYYSIEKEGQRKWYKRMAVILSLEQGNRLREQYGLGPYEAVTPLTKAADISLDNLVEGKRKRRSNVSSPATPTASSSSSTTPTRKITESPRASMGVLSGKRKLITSEEERSPAKRGRKSATVKPGAVGAGEFVSPCESGDNTGE | Yes
AA residues 1–34 and 1220–1711: 53Bp1 deletion mutant, deletion of residues 35–1219 and 1712–1972 of SEQ ID NO: 2, HA-tagged (protein, HA tag; human 53Bp1) MDPTGSQLDSDFSQQDTPCLIIEDSQPESQVLEDQGEEEFDMPQPPHGHVLHRHMRTIREVRTLVTRVITDVYYVDGTEVERKVTEETEEPIVECQECETEVSPSQTGGSSGDLGDISSFSSKASSLHRTSSGTSLSAMHSSGSSGKGAGPLRGKTSGTEPADFALPSSRGGPGKLSPRKGVSQTGTPVCEEDGDAGLGIRQGGKAPVTPRGRGRRGRPPSRTTGTRETAVPGPLGIEDISPNLSPDDKSFSRVVPRVPDSTRRTDVGAGALRRSDSPEIPFQAAAGPSDGLDASSPGNSFVGLRVVAKWSSNGYFYSGKITRDVGAGKYKLLFDDGYECDVLGKDILLCDPIPLDTEVTALSEDEYFSAGVVKGHRKESGELYYSIEKEGQRKWYKRMAVILSLEQGNRLREQYGLGPYEAVTPLTKAADISLDNLVEGKRKRRSNVSSPATPTASSSSSTTPTRKITESPRASMGVLSGKRKLITSEEERSPAKRGRKSATVKPGAVGAGEFVSPCESGDNTGE | Yes
AA residues 1–34 and 1047–1972: 53Bp1 deletion mutant, deletion of residues 35–1046 of SEQ ID NO: 2, HA-tagged (protein, HA tag; human 53Bp1) MDPTGSQLDSDFSQQDTPCLIIEDSQPESQVLEDEARSEDPPTTPIRGNLLHFPSSQGEEEKEKLEGDHTIRQSQQPMKPISPVKDPVSPASQKMVIQGPSSPQGEAMVTDVLEDQKEGRSTNKENPSKALIERPSQNNIGIQTMECSLRVPETVSAATQTIKNVCEQGTSTVDQNFGKQDATVQTERGSGEKPVSAPGDDTESLHSQGEEEFDMPQPPHGHVLHRHMRTIREVRTLVTRVITDVYYVDGTEVERKVTEETEEPIVECQECETEVSPSQTGGSSGDLGDISSFSSKASSLHRTSSGTSLSAMHSSGSSGKGAGPLRGKTSGTEPADFALPSSRGGPGKLSPRKGVSQTGTPVCEEDGDAGLGIRQGGKAPVTPRGRGRRGRPPSRTTGTRETAVPGPLGIEDISPNLSPDDKSFSRVVPRVPDSTRRTDVGAGALRRSDSPEIPFQAAAGPSDGLDASSPGNSFVGLRVVAKWSSNGYFYSGKITRDVGAGKYKLLFDDGYECDVLGKDILLCDPIPLDTEVTALSEDEYFSAGVVKGHRKESGELYYSIEKEGQRKWYKRMAVILSLEQGNRLREQYGLGPYEAVTPLTKAADISLDNLVEGKRKRRSNVSSPATPTASSSSSTTPTRKITESPRASMGVLSGKRKLITSEEERSPAKRGRKSATVKPGAVGAGEFVSPCESGDNTGEPSALEEQRGPLPLNKTLFLGYAFLLTMATTSDKLASRSKLPDGPTGSSEEEEEFLEIPPFNKQYTESQLRAGAGYILEDFNEAQCNTAYQCLLIADQHCRTRKYFLCLASGIPCVSHVWVHDSCHANQLQNYRNYLLPAGYSLEEQRILDWQPRENPFQNLKVLLVSDQQQNFLELWSEILMTGGAASVKQHHSSAHNKDIALGVFDVVVTDPSCPASVLKCAEALQLPVVSQEWVIQCLIVGERIGFKQHPKYKHDYVSH | Yes
AA residues 1–34 and 1411–1711: 53Bp1 deletion mutant, deletion of residues 35–1410 and 1712–1972 of SEQ ID NO: 2, HA-tagged (protein, HA tag; human 53Bp1) MDPTGSQLDSDFSQQDTPCLIIEDSQPESQVLEDTRETAVPGPLGIEDISPNLSPDDKSFSRVVPRVPDSTRRTDVGAGALRRSDSPEIPFQAAAGPSDGLDASSPGNSFVGLRVVAKWSSNGYFYSGKITRDVGAGKYKLLFDDGYECDVLGKDILLCDPIPLDTEVTALSEDEYFSAGVVKGHRKESGELYYSIEKEGQRKWYKRMAVILSLEQGNRLREQYGLGPYEAVTPLTKAADISLDNLVEGKRKRRSNVSSPATPTASSSSSTTPTRKITESPRASMGVLSGKRKLITSEEERSPAKRGRKSATVKPGAVGAGEFVSPCESGDNTGE | No

Each molecule was assayed on 53Bp1 foci in U2OS cells (assay: 53Bp1 foci formation in cells treated with DNA damaging agents, by immunofluorescence). Details: 0.2 mM etoposide; 1 mM hydroxyurea for 1 to 25 hours.

Molecule | 53Bp1-containing foci formation in treated cells
NC(=O)NO [HU, hydroxyurea] | do not form
